For one series, the system named is D. pneumoniae A9585. Nature of the series: MIC, 2-fold broth dilution, D. pneumoniae A9585. It is filed as cell-based. The following applies: Streptococcus pneumoniae, 10-3 dilution of overnite broth culture, 45% AAB + 5% serum + 50% NB. Here is the method: (§1) *45% AAB + 5% serum + 50% NB
(§2) **Dilution of overnite broth culture
(§3) Minimal inhibitory concentrations were determined by the 2-fold broth dilution method utilizing equimolar concentrations of each compound.
Background: Dilution methods test growth across graded concentrations, often in twofold steps.

For another series, the system named is Str. pyogenes A9604. Nature of the series: MIC, 2-fold broth dilution, Str. pyogenes A9604. The following applies: Streptococcus pyogenes, 10-3 dilution of overnite broth culture, 45% AAB + 5% serum + 50% NB. It is filed as cell-based. Here is the method: as §1, §2, §3
In another series the test system is S. aureus Smith A9537. Nature of the series: MIC, 2-fold broth dilution, S. aureus Smith A9537. It is filed as cell-based. The following applies: Staphylococcus aureus, SMITHA9537, Nutrient Broth, 10-4. Here is the method: as §3
In a further series the test system is S. aureus BX1633 A9606. The series can be described thus: MIC, 2-fold broth dilution, S. aureus BX1633 A9606. The following applies: Staphylococcus aureus, BX1633A9606, Nutrient Broth. The series is classed as cell-based. Here is the method: as §3
Series [1] concerns S. aureus Meth-Res A15097. Nature of the series: MIC, 2-fold broth dilution, S. aureus Meth-Res A15097. The following applies: Staphylococcus aureus; Nutrient Broth; 10-3. It is filed as cell-based. Here is the method:
as §3

A further series deals with Sal. enteritidis A9531. Nature of the series: MIC, 2-fold broth dilution, Sal. enteritidis A9531. The series is classed as cell-based. The note with it: Salmonella enterica, Nutrient Broth, 10-4. Here is the method:
as §3

For the next series, the system named is E. coli Juhl A15119. Nature of the series: MIC, 2-fold broth dilution, E. coli Juhl A15119. It is filed as cell-based. The note with it: Escherichia coli, JUHLA15119; Nutrient Broth; 10-4. Here is the method: as §3
In another series the test system is E. coli A9675. The series can be described thus: MIC, 2-fold broth dilution, E. coli A9675. The note with it: Escherichia coli, Nutrient Broth, 10-4. It is filed as cell-based. Here is the method: as §3
Another series has as its system K. pneumoniae A9977. The series can be described thus: MIC, 2-fold broth dilution, K. pneumoniae A9977. It is filed as cell-based. The note with it: Klebsiella pneumoniae, Nutrient Broth, 10-4. Here is the method: as §3
The test system of another series is K. pneumoniae A15130. The series can be described thus: MIC, 2-fold broth dilution, K. pneumoniae A15130. It is filed as cell-based. The following applies: Klebsiella pneumoniae, Nutrient Broth, 10-4. Here is the method: as §3
The next series has as its system Pr. mirabilis A9900. Nature of the series: MIC, 2-fold broth dilution, Pr. mirabilis A9900. The series is classed as cell-based. The following applies: Proteus mirabilis, Nutrient Broth, 10-4. Here is the method: as §3
Another series deals with Pr. morganii A15153. Nature of the series: MIC, 2-fold broth dilution, Pr. morganii A15153. It is filed as cell-based. The note with it: Morganella morganii, Nutrient Broth, 10-4. Here is the method:
as §3

The test system of the next series is Ps. aeruginosa A9843A. The series can be described thus: MIC, 2-fold broth dilution, Ps. aeruginosa A9843A. The following applies: Pseudomonas aeruginosa. The series is classed as cell-based. Here is the method:
as §3

The test system of another series is Ser. marcescens A20019. Nature of the series: MIC, 2-fold broth dilution, Ser. marcescens A20019. It is filed as cell-based. The following applies: Serratia marcescens, Nutrient Broth, 10-4. Here is the method: as §3
The subject of a further series is Ent. cloacae A9656. Nature of the series: MIC, 2-fold broth dilution, Ent. cloacae A9656. The following applies: Enterobacter cloacae, Nutrient Broth, 10-4. It is filed as cell-based. Here is the method:
as §3

The subject of the next series is Ent. cloacae A9657. The series can be described thus: MIC, 2-fold broth dilution, Ent. cloacae A9657. It is filed as cell-based. The following applies: Enterobacter cloacae, Nutrient Broth, 10-4. Here is the method: as §3
The test system of the next series is Ent. cloacae A9659. Nature of the series: MIC, 2-fold broth dilution, Ent. cloacae A9659. The note with it: Enterobacter cloacae, Nutrient Broth, 10-4. It is filed as cell-based. Here is the method: as §3
Series [2] in a line: Hydrolysis in human serum (bioautographed paper chromatography). It is filed as in vitro ADME. Here is the method:
(§4) Solutions of 0.5 mg./ml. of 7-D-(-)α-amino-α-p(-acetoxyphenylacetamido)desacetoxycephalosporanic acid (p-acetoxycephalexin) in normal saline and in human serum were prepared. Standard solutions of 0.5 mg./ml. of 7-D-(-)α-amino-α-p(-hydroxyphenylacetamido)desacetoxycephalosporanic acid (p-hydroxycephalexin) were also prepared in both normal saline and human serum.
(§5) All the above solutions were incubated at 37° C. with shaking and sampled for chromatography at time intervals of 0, 2, 4, 8 and 24 hours. The solutions, approximately 5 microliters per strip, were spotted on Whatman No. 1 half-inch strips which were dried and developed in a solvent system containing 80 parts butylacetate; 15 parts n-butanol; 40 parts acetic acid; and 24 parts water. The strips were then bioautographed on plates seeded with bacillus subtilis at a pH of 6.0.

Series [3] can be described thus: Stability in normal saline (bioautographed paper chromatography). The series is classed as physicochemical. The note with it: 0.5 mg./ml. in normal saline, 37° C., sampled 0-24 hours. Here is the method:
as §4, §5

Each structure is given as a SMILES string. ≈ marks a conversion by molar mass, not a printed value. Bounds are passed on as bounds.

As to `CC1=C(C(=O)O)N2C(=O)[C@@H](NC(=O)[C@H](N)c3ccc(O)cc3)[C@H]2SC1` [BL-S 578-4, 7-D-(-)α-amino-α-(p-hydroxyphenylacetamido)desacetoxycephalosporanic acid, reference compound], the MIC (commonly the lowest concentration found to suppress growth) with D. pneumoniae A9585 turned out to be 0.6 µg/mL; with Str. pyogenes A9604, 0.08 µg/mL; with S. aureus Smith A9537, 1.3 µg/mL (≈ 3.58 µM); with S. aureus Smith A9537 (+ 50% serum), 1.3 µg/mL; with S. aureus BX1633 A9606 (10-2), 2 µg/mL (≈ 5.5 µM); against S. aureus BX1633 A9606 (10-3), 2 µg/mL (≈ 5.5 µM). Further, the MIC in series [1] turned out to be 16 µg/mL (≈ 44 µM); against Sal. enteritidis A9531, 8 µg/mL (≈ 22 µM); with E. coli Juhl A15119, 16 µg/mL (≈ 44 µM); against E. coli A9675, 32 µg/mL (≈ 88.1 µM); against K. pneumoniae A9977, 16 µg/mL (≈ 44 µM); in the series on K. pneumoniae A15130, 32 µg/mL (≈ 88.1 µM). Moreover, the MIC was 8 µg/mL (≈ 22 µM) against Pr. mirabilis A9900; greater than 125 µg/mL against Pr. morganii A15153; greater than 125 µg/mL against Ps. aeruginosa A9843A; greater than 125 µg/mL with Ser. marcescens A20019; greater than 125 µg/mL against Ent. cloacae A9656; 16 µg/mL (≈ 44 µM) with Ent. cloacae A9657. In the series on Ent. cloacae A9659, the MIC was greater than 125 µg/mL.
Consider `N[C@@H](C(=O)N[C@@H]1C(=O)N2C(C(=O)O)=C(CSc3c[nH]nn3)CS[C@H]12)c1ccc(O)cc1` [Bl-S640, reference compound], for which the MIC with D. pneumoniae A9585 turned out to be 0.04 µg/mL; in the series with Str. pyogenes A9604, 0.04 µg/mL; against S. aureus Smith A9537 it was 0.3 µg/mL (≈ 0.649 µM); in the series on S. aureus Smith A9537 (+ 50% serum), 1 µg/mL; with S. aureus BX1633 A9606 (10-2), 1 µg/mL (≈ 2.16 µM); in the series with S. aureus BX1633 A9606 (10-3), 0.6 µg/mL (≈ 1.3 µM). The MIC in [1] was found to be 4 µg/mL (≈ 8.65 µM); in the series with Sal. enteritidis A9531 it was 0.6 µg/mL (≈ 1.3 µM); against E. coli Juhl A15119, 0.5 µg/mL (≈ 1.08 µM); against E. coli A9675, 4 µg/mL (≈ 8.65 µM); against K. pneumoniae A9977, 0.5 µg/mL (≈ 1.08 µM); with K. pneumoniae A15130, 1 µg/mL (≈ 2.16 µM). In addition, the MIC against Pr. mirabilis A9900 is 0.5 µg/mL (≈ 1.08 µM); against Pr. morganii A15153, 63 µg/mL (≈ 136 µM); against Ps. aeruginosa A9843A it was 125 µg/mL (≈ 270 µM); in the series on Ser. marcescens A20019, 125 µg/mL (≈ 270 µM); in the series on Ent. cloacae A9656, 125 µg/mL (≈ 270 µM); with Ent. cloacae A9657 it was 0.5 µg/mL (≈ 1.08 µM). The compound further showed an MIC in the series with Ent. cloacae A9659 of 32 µg/mL (≈ 69.2 µM).
With `CC(=O)Oc1ccc([C@@H](N)C(=O)N[C@@H]2C(=O)N3C(C(=O)O)=C(C)CS[C@H]23)cc1` [RN 1394, 7-D(-)2-amino-2-(4-acetoxyphenylacetamido)desacetoxycephalosporanic acid], the MIC in the series on D. pneumoniae A9585 came out at 0.08 µg/mL; in the series on Str. pyogenes A9604 it was 0.08 µg/mL; in the series on S. aureus Smith A9537, 0.6 µg/mL (≈ 1.48 µM); with S. aureus Smith A9537 (+ 50% serum), 0.6 µg/mL; against S. aureus BX1633 A9606 (10-2), 2 µg/mL (≈ 4.93 µM); in the series on S. aureus BX1633 A9606 (10-3) it was 1 µg/mL (≈ 2.47 µM). In addition, the MIC in series [1] is 32 µg/mL (≈ 78.9 µM); in the series with Sal. enteritidis A9531, 8 µg/mL (≈ 19.7 µM); with E. coli Juhl A15119 it was 32 µg/mL (≈ 78.9 µM); against E. coli A9675, 63 µg/mL (≈ 155 µM); in the series with K. pneumoniae A9977, 16 µg/mL (≈ 39.5 µM); in the series with K. pneumoniae A15130, 32 µg/mL (≈ 78.9 µM). For the same compound, the MIC is 8 µg/mL (≈ 19.7 µM) against Pr. mirabilis A9900; greater than 125 µg/mL against Pr. morganii A15153; greater than 125 µg/mL with Ps. aeruginosa A9843A; greater than 125 µg/mL with Ser. marcescens A20019; greater than 125 µg/mL in the series with Ent. cloacae A9656; 8 µg/mL (≈ 19.7 µM) in the series on Ent. cloacae A9657. The compound also had an MIC against Ent. cloacae A9659 greater than 125 µg/mL. Moreover, the “hydrolysis to the p-hydroxy form in human serum” value in series [2] (0.5 mg./ml. in human serum, 37° C., sampled 0-24 hours) is “quickly hydrolyzed to the p-hydroxy form”. The “enzymatic hydrolysis to the p-hydroxy compound” value in [2] (enzymatic) is given as “hydrolyzed enzymatically”. The figures for the “stability in normal saline” value in [3] (listed as 7-D-(-)α-amino-α-(p-acetoxyphenyl-acetamido)desacetoxycephalosporanic acid) and in series [3] (listed as p-acetoxycephalexin) were “stable in normal saline” and “appears stable”, respectively.
As for `CC(=O)Oc1ccc([C@@H](N)C(=O)N[C@@H]2C(=O)N3C(C(=O)O)=C(CSc4c[nH]nn4)CS[C@H]23)cc1` [RN 1396], the minimal inhibitory concentration (MIC) in the series with D. pneumoniae A9585 turned out to be 0.04 µg/mL; with Str. pyogenes A9604, 0.04 µg/mL; in the series on S. aureus Smith A9537 it was 0.16 µg/mL (≈ 0.317 µM); in the series on S. aureus Smith A9537 (+ 50% serum) it was 1 µg/mL; against S. aureus BX1633 A9606 (10-2) it was 4 µg/mL (≈ 7.93 µM); against S. aureus BX1633 A9606 (10-3) it was 0.6 µg/mL (≈ 1.19 µM). The MIC in series [1] was determined as 8 µg/mL (≈ 15.9 µM); in the series on Sal. enteritidis A9531, 0.3 µg/mL (≈ 0.595 µM); against E. coli Juhl A15119 it was 2 µg/mL (≈ 3.96 µM); in the series on E. coli A9675, 8 µg/mL (≈ 15.9 µM); in the series on K. pneumoniae A9977, 1 µg/mL (≈ 1.98 µM); against K. pneumoniae A15130 it was 2 µg/mL (≈ 3.96 µM). The minimal inhibitory concentration (MIC) was found to be 0.5 µg/mL (≈ 0.991 µM) with Pr. mirabilis A9900; 63 µg/mL (≈ 125 µM) against Pr. morganii A15153; 125 µg/mL (≈ 248 µM) in the series on Ps. aeruginosa A9843A; 125 µg/mL (≈ 248 µM) against Ser. marcescens A20019; 125 µg/mL (≈ 248 µM) in the series with Ent. cloacae A9656; 1 µg/mL (≈ 1.98 µM) in the series with Ent. cloacae A9657. In the series on Ent. cloacae A9659, this compound showed an MIC of 32 µg/mL (≈ 63.4 µM).

The values above are taken from patent US4012382A, “α-Amino and α-formyl-α-(p-acyloxyphenyl)acetamidocephalosporanic acid derivatives” (priority 1974, dated 1977).
